The record followed here is US12594317B2 (priority 2020, dated 2026).

This assay relates to HEK293 cell line stably expressing ACE2 receptor infected by COVID-19 pseudovirus. In kind it is cell-based, human. The note with it: positive control group, 10 μL of 100 μM solution per well, 48 h.

Molecules are shown by their SMILES.

Regarding `CCN(CC)CCCC(C)Nc1ccnc2cc(Cl)ccc12` (stereo not shown) [chloroquine phosphate], the “RLU/RLUc value (ratio of fluorescence value of test group to average fluorescence intensity of negative control group)” value is 0.05±0.01.
